The numbers were not newly measured in patent US5882682A (Merck & Co., Inc., priority 1997, dated 1999), which cites them from elsewhere.

Converted amounts (≈) assume the structure as drawn.

The conditions of series [1]: humans.

As for `CCC(C)(C)C(=O)O[C@H]1C[C@@H](C)C=C2C=C[C@H](C)[C@H](CC[C@@H]3C[C@@H](O)CC(=O)O3)[C@H]21` [simvastatin], the “reduction of serum cholesterol levels” value in series [1] is listed as “highly effective”. For `COc1ccc2c(c1)c(CC(=O)O)c(C)n2C(=O)c1ccc(Cl)cc1` [indomethacin], the “aqueous solubility (in words)” value is given as “poorly aqueous soluble”.

Regarding `CC(=O)Nc1ccc(O)cc1` [acetominophren, acetaminophen], the “aqueous solubility (in words)” value is “moderately soluble”. Usually aqueous solubility stands for the concentration that dissolves in the medium under given conditions. Consider `CC[C@H](C)C(=O)O[C@H]1C[C@@H](C)C=C2C=C[C@H](C)[C@H](CC[C@@H]3C[C@@H](O)CC(=O)O3)[C@H]21` [lovastatin], for which the “reduction of serum cholesterol levels” value in series [1] was “highly effective”. Besides, the aqueous solubility (water) was 0.44 µg/mL (≈ 1.09 µM).
